TGI and GI50 data for 20 compounds are collected here from PubChem BioAssay (NCI).

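Growth conditions: 96-well plates. Treatment: test compound, 48 hours, 5 concentrations. Analysis: linear interpolation between bracketing concentrations; unreached endpoints set to highest concentration. GI50 is the concentration that inhibits growth by half. The concentration for full growth arrest is given as TGI.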

Some test systems named below: SK-OV-3 ovarian; PC-3 prostate; COLO 205 colon; SF-268 CNS; OVCAR-3 ovarian; HL-60(TB) leukemia; MOLT-4 leukemia; NCI/ADR-RES ovarian; OVCAR-4 ovarian; NCI-H522 lung.
Common to all, as to test: growth of human tumour cells (NCI), 48 h

As for `CCOC(=O)/C=C/CCC(C)(C)COC(C)=O`, the TGI with SK-OV-3 ovarian, in the assay with PC-3 prostate, with COLO 205 colon, in the assay on SF-268 CNS, in the assay with OVCAR-3 ovarian and with HL-60(TB) leukemia was greater than 10 µM in each case. Also, the TGI in the assay on MOLT-4 leukemia, in the assay on NCI/ADR-RES ovarian, with OVCAR-4 ovarian and in the assay on NCI-H522 lung was greater than 10 µM in each case.

As for `O=c1c2c3c(sc2nc2n1N=C(c1ccc(Br)cc1)CS2)CCCC3`, the TGI in the assay on SK-OV-3 ovarian, in the assay with PC-3 prostate, in the assay on COLO 205 colon, in the assay on SF-268 CNS, with OVCAR-3 ovarian and with HL-60(TB) leukemia was greater than 100 µM in each case. Further, the TGI in the assay with MOLT-4 leukemia, in the assay with NCI/ADR-RES ovarian, in the assay on OVCAR-4 ovarian and in the assay with NCI-H522 lung was greater than 100 µM in each case.

As for `CC[C@H](NC(=O)OC(C)(C)C)C(=O)NCP(=O)(OCc1ccc([N+](=O)[O-])cc1)OCc1ccc([N+](=O)[O-])cc1`, the TGI in the assay with SK-OV-3 ovarian was 86 µM; in the assay with PC-3 prostate it was greater than 100 µM; with COLO 205 colon, 30 µM; with SF-268 CNS, greater than 100 µM; with OVCAR-3 ovarian it was greater than 100 µM; in the assay with HL-60(TB) leukemia, 62.2 µM. Also, the TGI in the assay on MOLT-4 leukemia, in the assay on NCI/ADR-RES ovarian, in the assay on OVCAR-4 ovarian and in the assay on NCI-H522 lung was greater than 100 µM throughout.

Regarding `O=C1C=CC(=O)c2c(O)c(N3CCC[C@@H]3CO)c(Cl)c(O)c21`, the TGI with SK-OV-3 ovarian was determined as 7.78 µM; in the assay with PC-3 prostate, 4.78 µM; in the assay with COLO 205 colon, 2.88 µM; in the assay on SF-268 CNS it was 1.74 µM; with OVCAR-3 ovarian it was 3.08 µM; in the assay with HL-60(TB) leukemia, 0.734 µM. The TGI in the assay on MOLT-4 leukemia is 1.14 µM; with NCI/ADR-RES ovarian it was 6.25 µM; in the assay on OVCAR-4 ovarian, 3.16 µM; with NCI-H522 lung it was 2.36 µM.

As for `CC1=C(C)SC(=C2Sc3c(n(C)c(=O)n(C)c3=O)S2)S1`, the TGI with SK-OV-3 ovarian is 33.5 µM; with PC-3 prostate, greater than 100 µM; in the assay on COLO 205 colon it was greater than 100 µM; in the assay with SF-268 CNS it was greater than 100 µM; in the assay with OVCAR-3 ovarian it was greater than 100 µM; in the assay with HL-60(TB) leukemia, greater than 100 µM. Also, the TGI is greater than 100 µM in the assay on MOLT-4 leukemia, greater than 100 µM in the assay on NCI/ADR-RES ovarian, 58.3 µM with OVCAR-4 ovarian and greater than 100 µM in the assay with NCI-H522 lung.

On to `CC1(C)C=C(/C=C2/N(S(=O)(=O)C(F)(F)F)C(/C=C3/N(S(=O)(=O)C(F)(F)F)C(C)(C#N)CC3(C)C)=CC2(C)C)N=C1/C=C1/CC(C)(C)C(=O)N1` (stereo unspecified), for which the TGI in the assay on SK-OV-3 ovarian is greater than 100 µM; in the assay with PC-3 prostate, greater than 100 µM; in the assay on COLO 205 colon, 39.2 µM; in the assay on SF-268 CNS, 36 µM; with OVCAR-3 ovarian, greater than 100 µM; with HL-60(TB) leukemia, 21.2 µM. Further, the TGI in the assay with MOLT-4 leukemia was greater than 100 µM; in the assay on NCI/ADR-RES ovarian, greater than 100 µM; in the assay with OVCAR-4 ovarian it was greater than 100 µM; in the assay with NCI-H522 lung, 27.9 µM.

Regarding `CCn1ncc2c(=O)n3ncn(-c4ccc(Br)cc4)c3nc21`, the TGI in the assay on SK-OV-3 ovarian, in the assay on PC-3 prostate, with COLO 205 colon, in the assay on SF-268 CNS, in the assay on OVCAR-3 ovarian and in the assay with HL-60(TB) leukemia was greater than 100 µM in each case. In addition, the TGI with MOLT-4 leukemia, with NCI/ADR-RES ovarian, in the assay with OVCAR-4 ovarian and in the assay on NCI-H522 lung was greater than 100 µM each time.

Regarding `COc1ccc2c(c1OC)C(=O)N1C2=Cc2c(cc3c(c2OC)OCO3)CC1N(C)C` (stereo unspecified), the TGI in the assay on SK-OV-3 ovarian is greater than 100 µM; in the assay on PC-3 prostate it was greater than 100 µM; with COLO 205 colon, greater than 100 µM; with SF-268 CNS, greater than 100 µM; in the assay with OVCAR-3 ovarian, greater than 100 µM; with HL-60(TB) leukemia, 80.1 µM. The TGI with MOLT-4 leukemia, in the assay with NCI/ADR-RES ovarian, with OVCAR-4 ovarian and with NCI-H522 lung was greater than 100 µM in each case.

For the compound `NC(=O)c1ccc[n+](C2=C([O-])c3ccccc3C(=O)/C2=N\S(=O)(=O)c2ccccc2)c1`, the TGI with SK-OV-3 ovarian is greater than 100 µM; with PC-3 prostate, 30.2 µM; in the assay with COLO 205 colon, 30.2 µM; in the assay with SF-268 CNS, 31.3 µM; in the assay with OVCAR-3 ovarian, 17 µM; with HL-60(TB) leukemia it was greater than 100 µM. The TGI in the assay with MOLT-4 leukemia was 81.5 µM; in the assay on NCI/ADR-RES ovarian it was 36.3 µM; in the assay with OVCAR-4 ovarian, 18.9 µM; with NCI-H522 lung, 24.1 µM.

With `OC(CC(O)(C(F)(F)Cl)C(F)(F)Cl)c1ccccc1` (stereo unspecified), the TGI in the assay with SK-OV-3 ovarian, in the assay with PC-3 prostate, with COLO 205 colon, in the assay with SF-268 CNS, with OVCAR-3 ovarian and with HL-60(TB) leukemia was greater than 10 µM each time. For the same compound, the TGI in the assay on MOLT-4 leukemia, in the assay on NCI/ADR-RES ovarian, in the assay with OVCAR-4 ovarian and in the assay on NCI-H522 lung was greater than 10 µM in each case.

For `c1ccc2c(c1)cc1ccc3cccc4ccc2c1c34`, the TGI with SK-OV-3 ovarian, in the assay on PC-3 prostate, in the assay with COLO 205 colon, in the assay with SF-268 CNS, with OVCAR-3 ovarian and in the assay on HL-60(TB) leukemia was greater than 100 µM throughout. In addition, the TGI in the assay with MOLT-4 leukemia, in the assay with NCI/ADR-RES ovarian, in the assay with OVCAR-4 ovarian and in the assay with NCI-H522 lung was greater than 100 µM throughout. The GI50 in the assay on OVCAR-4 ovarian is greater than 100 µM.

Take `CC1=NN2C(=N)/C(=C/c3ccc(F)cc3)C(=O)N=C2S1`: the TGI in the assay with SK-OV-3 ovarian, in the assay on PC-3 prostate, with COLO 205 colon, in the assay on SF-268 CNS, with OVCAR-3 ovarian and in the assay with HL-60(TB) leukemia was greater than 100 µM in each case. Moreover, the TGI with MOLT-4 leukemia is greater than 100 µM; with NCI/ADR-RES ovarian it was 28.5 µM; with OVCAR-4 ovarian, greater than 100 µM; in the assay with NCI-H522 lung, greater than 100 µM.

Consider `O=C1CSC(c2c[nH]c3ccccc23)N1c1ccc(Cl)cc1Cl` (stereo unspecified), for which the TGI with SK-OV-3 ovarian, with PC-3 prostate, with COLO 205 colon, in the assay with SF-268 CNS, in the assay with OVCAR-3 ovarian and in the assay on HL-60(TB) leukemia was greater than 100 µM throughout. For the same compound, the TGI in the assay with MOLT-4 leukemia, in the assay with NCI/ADR-RES ovarian, with OVCAR-4 ovarian and in the assay on NCI-H522 lung was greater than 100 µM in each case.

Regarding `COc1ccc(-c2cc3cc(Cl)cc(Cl)c3oc2=O)cc1OC`, the TGI in the assay with SK-OV-3 ovarian, in the assay with PC-3 prostate, with COLO 205 colon, in the assay with SF-268 CNS, in the assay on OVCAR-3 ovarian and in the assay with HL-60(TB) leukemia was greater than 100 µM in each case. For the same compound, the TGI in the assay with MOLT-4 leukemia, in the assay on NCI/ADR-RES ovarian, with OVCAR-4 ovarian and in the assay with NCI-H522 lung was greater than 100 µM throughout.

Turning to `CSc1ncc2c(n1)-c1ccccc1OC2NC1CC1` (stereo unspecified), the TGI with SK-OV-3 ovarian was greater than 100 µM; in the assay on PC-3 prostate it was greater than 100 µM; in the assay with COLO 205 colon, greater than 100 µM; in the assay with SF-268 CNS it was greater than 100 µM; in the assay with OVCAR-3 ovarian, greater than 100 µM; in the assay with HL-60(TB) leukemia, 73.3 µM. Also, the TGI with MOLT-4 leukemia is greater than 100 µM; in the assay with NCI/ADR-RES ovarian, greater than 100 µM; with OVCAR-4 ovarian it was greater than 100 µM; in the assay with NCI-H522 lung, 82.5 µM.

On to `CS(=O)(=O)Nc1ccc2ccccc2c1`, for which the TGI with SK-OV-3 ovarian, in the assay on PC-3 prostate, in the assay with COLO 205 colon, with SF-268 CNS, in the assay with OVCAR-3 ovarian and in the assay on HL-60(TB) leukemia was greater than 100 µM each time. Besides, the TGI in the assay with MOLT-4 leukemia, in the assay with NCI/ADR-RES ovarian, in the assay with OVCAR-4 ovarian and in the assay on NCI-H522 lung was greater than 100 µM each time.

Turning to `CCC1([N+](=O)[O-])CN(N=O)C1`, the TGI with SK-OV-3 ovarian, with PC-3 prostate, in the assay with COLO 205 colon, in the assay with SF-268 CNS, in the assay with OVCAR-3 ovarian and with HL-60(TB) leukemia was greater than 100 µM in each case. Also, the TGI in the assay with MOLT-4 leukemia, in the assay on NCI/ADR-RES ovarian, in the assay with OVCAR-4 ovarian and in the assay with NCI-H522 lung was greater than 100 µM in each case.

Regarding `Cc1c(C(=O)NNc2ccccc2)n2c(=S)[nH]nc2c2ccccc12`, the TGI in the assay on SK-OV-3 ovarian, in the assay with PC-3 prostate, in the assay with COLO 205 colon, with SF-268 CNS, with OVCAR-3 ovarian and with HL-60(TB) leukemia was greater than 100 µM each time. In addition, the TGI in the assay with MOLT-4 leukemia, in the assay with NCI/ADR-RES ovarian, in the assay with OVCAR-4 ovarian and in the assay with NCI-H522 lung was greater than 100 µM throughout.

With `CC1=C(C(=O)OCCO[N+](=O)[O-])C(c2ccccc2[N+](=O)[O-])C(C(=O)OC(C)C)=C(C)N1` (stereo unspecified), the TGI was 39.8 µM with SK-OV-3 ovarian; 23.2 µM in the assay with PC-3 prostate; 29.7 µM with COLO 205 colon; 47.1 µM with SF-268 CNS; 27.9 µM in the assay on OVCAR-3 ovarian; greater than 100 µM in the assay on HL-60(TB) leukemia. Further, the TGI was greater than 100 µM in the assay on MOLT-4 leukemia, 51.7 µM in the assay on NCI/ADR-RES ovarian, 52.3 µM in the assay with OVCAR-4 ovarian and 30.5 µM in the assay on NCI-H522 lung.

As for `CN(C)/N=N/c1nc2c(c(=O)n(C)c(=O)n2C)n1CC1CO1` (stereo unspecified), the TGI was 61.7 µM with SK-OV-3 ovarian; 56.4 µM with PC-3 prostate; 27.3 µM in the assay with COLO 205 colon; 33.6 µM with SF-268 CNS; 31.4 µM in the assay with OVCAR-3 ovarian; greater than 100 µM in the assay with HL-60(TB) leukemia. Also, the TGI is greater than 100 µM with MOLT-4 leukemia, 41.1 µM with NCI/ADR-RES ovarian, 29.4 µM with OVCAR-4 ovarian and 29.7 µM with NCI-H522 lung.
